Each structure is given as a SMILES string.

The subject of data set [1] is secreted HMGB-1 from LLC cells. Put plainly: HMGB-1 ELISA of supernatants. In kind it is cell-based, mouse. The conditions noted are these: 0.6 μM WFA, 48 h. The method, then:
Cells were treated with WFA for 48 h then collected using Accutase cell detachment solution. […] (FIG. 2E) Bone marrow-derived DC were co-cultured with WFA-pretreated LLC cells (24 h) in a ratio 5:1 of DC:LLC cells for 24 h.
LLC cells were plated and treated with WFA or doxorubicin (ICD inducer) for 48 h. Supernatants were collected and centrifuged at 1000 RPM for 10 min. The levels of secreted HMGB-1 were measured using the HMGB-1 detection ELISA kit (Chondrex, 6010, Woodinville, WA, USA) according to the manufacturer's protocol.

Data set [2] deals with PD-L1 expression in LLC, H1650, and A549 cell lines. Put plainly: PD-L1 expression in NSCLC cell lines (flow cytometry, qRT-PCR, western blot). The format is cell-based, mouse (LLC), human (H1650. As to the method: FIGS. 3A-3F depict that WFA upregulates PD-L1 surface expression in NSCLC cell lines. Cells were treated with WFA for 48 h. (FIGS. 3A, 3C, 3E) PD-L1 surface expression determined using flow cytometry LLC (FIG. 3A), H1650 (FIG. 3C), and A549 (FIG. 3E). (FIGS. 3B, 3D, 3F) PD-L1 expression was measured using qRT-PCR LLC (FIG. 3B), H1650 (FIG. 3D), A549 (FIG. 3F). PCR experiments were repeated twice and the mean±SEM of the technical replicates are represented. For the rest, the means of two independent experiments ±SEM are shown, and statistical significance was calculated using one-way ANOVA and a Fisher LSD post hoc test where * is p<0.05, ** is p<0.01, and **** is p <0.0001.
FIGS. 8A-8G depict that WFA induced ICD and PD-L1 upregulation in colorectal cancer cell lines. WFA increased the levels of ecto-CRT in the murine colorectal cancer cell line (FIG. 8A) MC-38 and human cell line (FIG. 8B) HCT-116. WFA increased the expression of PD-L1 in both (FIG. 8C) MC-38 and (FIG. 8D) HCT-116 cells. […] H1650 cells (at a higher density) were treated with a higher concentration of WFA (2 and 4 μM) to facilitate cell collection and protein isolation. The band density was quantified using Image J software and normalized to the housekeeping protein. The fold change from untreated control was averaged from two independent experiments ±SEM and one-way ANOVA was used to calculate the statistical significance. A Fisher LSD post hoc test was performed to compare the treatments to the control in (FIG. 8E) LLC, (FIG. 8F) H1650, (FIG. 8G) A549 cells. * p<0.05, ** p<0.01, *** p<0.001, **** p<0.0001. […]
(§1) Total cellular RNA was isolated from collected cell pellets using TRIzol reagent (Invitrogen, Waltham, MA, USA) and then quantified using the 2000 Nanodrop spectrophotometer (Thermo Fisher Scientific, Waltham, MA, USA). cDNA synthesis was performed using the Verso cDNA synthesis kit (Thermo Fisher Scientific, Waltham, MA, USA). qPCR was then performed using Forget-Me-Not EvaGreen qPCR Master Mix (Biotium, Fremont, CA, USA) in a Bio-Rad CFX384 thermocycler according to the manufacturer's instructions. […]
On the technique in general: In flow cytometry, cells or beads pass a laser one at a time.

Data set [3] concerns IFN-α mRNA in LLC and H1650 cells. Put plainly: IFN-α qRT-PCR. In kind it is cell-based, mouse (LLC), human (H1650). As to the method:
ROS is the main regulator of WFA-induced PD-L1 upregulation. […] All cells were treated with 0.6 μM WFA except A549, 4t1 and MDA-MB-231 cells which were treated with 4 μM, 1 μM, 2 μM WFA, respectively. […] PCR experiments were repeated twice, and one representative experiment is shown as mean±SEM of 3 technical replicates. Flow cytometry experiments were performed twice and the mean±SEM of two representative experiments is shown. Treatments were compared to the control using one-way ANOVA and Fisher LSD post hoc test. * p<0.05, ** p<0.01, *** p<0.001, **** p<0.0001.
as §1, with “instructions. The CFX Maestro software version 2.3 (Bio-Rad, Hercules, CA, USA) was used to calculate the ΔCt and ΔΔCt values and gene expression was normalized to housekeeping genes glyceraldehyde 3-phosphate dehydrogenase (GAPDH) or β-actin.” for “instructions.”

The test system of data set [4] is WI-38 lung fibroblasts and PBMCs. The conditions noted are these: at WFA concentrations toxic to A549 NSCLC cells; cited from earlier work.

Consider `CC1=C(CO)C(=O)O[C@@H]([C@@H](C)[C@H]2CC[C@H]3[C@@H]4C[C@H]5O[C@]56[C@@H](O)C=CC(=O)[C@]6(C)[C@H]4CC[C@]23C)C1` [WFA, Withaferin A], for which the “HMGB-1 levels secreted in the supernatants” value in data set [1] is reported as “increased”. Moreover, the PD-L1 surface expression entry in data set [2] (flow cytometry, 48 h, LLC, H1650, A549) was “consistently increased”. For the same molecule, the “PD-L1 expression (mRNA)” value in data set [2] (qRT-PCR) is given as “induced”. Further, the “PD-L1 expression (protein)” value in data set [2] (western blotting) is on record as “induced”. For the same molecule, in data set [3], the “IFN-α mRNA” value is listed as “increased”. Also, in data set [4], the “viability of normal cells” value was “remain viable”.

The values are drawn from patent US20240293430A1, “WITHAFERIN A AND IMMUNE CHECKPOINT BLOCKER COMBINATION THERAPIES” (University of South Florida, priority 2023, published 2024).
